Measured values from patent US20240041042A1, “1-(PYRIDYL)-5-AZINYLPYRAZOLE DERIVATIVES, AND THEIR USE FOR CONTROL OF UNDESIRED PLANT GROWTH” (Bayer Aktiengesellschaft, priority 2020, published 2024).
Where two headings read alike, the source gives them in different places.

How the values were obtained:
Type in all cases: in vivo
[1] = test system: Triticum aestivum (TRZAS); settings: pre-emergence, 80 g/ha, crop plant compatibility, in comparison to untreated controls
Summary of the method: (§1)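 Crop injury rated visually in percent against untreated plants roughly 3 weeks after treatment (0% no effect, 100% plants dead). Compounds, as WP or EC with 0.5% additive in 600 l/ha water, were applied to the covering soil right after sowing; greenhouse growth. Suffixes a, b, c denote different dosages.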

Glycine max (GLXMA) = settings: pre-emergence, crop plant compatibility, in comparison to untreated controls
Summary of the method: as §1

Oryza sativa (ORYSA) [2] = settings: pre-emergence, crop plant compatibility, in comparison to untreated controls
Summary of the method: as §1

Zea mays (ZEAMX) [3] = settings: pre-emergence, crop plant compatibility, in comparison to untreated controls
Summary of the method: as §1

Setaria viridis (SETVI) [4] = assay: Pre-emergence herbicidal action against SETVI
Summary of the method: (§2)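 Application rates ran to 320 g/ha or lower, with several dosages tested on the same weeds. The compound, as wettable powder or emulsion concentrate, is sprayed pre-emergence onto soil over sown seeds; greenhouse growth follows, and effect is rated visually after roughly 3 weeks.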

[5] = test system: Amaranthus retroflexus (AMARE); assay: Post-emergence herbicidal action against AMARE
Summary of the method: (§3)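 Rates were 320 g/ha or below, applied as aqueous WP/EC spray with 0.5% additive (600 l/ha) onto one-leaf-stage plants. About 3 weeks later in the greenhouse, damage was scored visually against untreated plants on a 0–100% scale, where 100% means plants died.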

Oryza sativa (ORYSA) [6] = settings: crop plant compatibility
Summary of the method: (§4)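 Effects were read visually as % versus untreated controls (0% = no effect, 100% = death) about 3 weeks post-treatment. Application was a post-emergence spray at the one-leaf stage of WP/EC formulations with 0.5% additive at 600 l/ha. Different dosages are denoted a, b and c.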

Zea mays (ZEAMX) [7] = settings: for Post-emergence action against ZEAMX in %: crop plant compatibility, effect vs untreated controls; for Post-emergence action against ZEAMX in % (crop plant compatibility): 20 g/ha, effect in comparison to untreated controls
Summary of the method: as §4

Viola tricolor (VIOTR) [8] = assay: Post-emergence herbicidal action against VIOTR
Summary of the method: as §3

[9] = test system: Amaranthus retroflexus (AMARE); assay: Pre-emergence herbicidal action against AMARE; settings: visual scoring after about 3 weeks vs untreated controls
Summary of the method: as §2

Lolium rigidum (LOLRI) [10] = assay: Pre-emergence herbicidal action against LOLRI
Summary of the method: as §2

Avena fatua (AVEFA) [11] = assay: Pre-emergence herbicidal action against AVEFA; settings: visual scoring after about 3 weeks vs untreated controls
Summary of the method: as §2

[12] = test system: Alopecurus myosuroides (ALOMY); assay: Pre-emergence herbicidal action against ALOMY; settings: 320 g/ha; scored visually after about 3 weeks; 100% = plants have died
Summary of the method: as §2

[13] = test system: Matricaria inodora (MATIN); assay: Post-emergence herbicidal action against MATIN
Summary of the method: as §3

[14] = test system: Pharbitis purpurea (PHBPU); assay: Post-emergence herbicidal action against PHBPU
Summary of the method: as §3

[15] = test system: Polygonum convolvulus (POLCO); assay: Pre-emergence herbicidal action against POLCO
Summary of the method: as §2

[16] = test system: Verconica persica (VERPE); assay: Post-emergence herbicidal action against VERPE
Summary of the method: as §3

[17] = test system: Echinochloa crus-galli (ECHCG); assay: Pre-emergence herbicidal action against ECHCG; settings: dosage 320 g/ha
Summary of the method: as §2

[18] = test system: Matricaria inodora (MATIN); assay: Pre-emergence herbicidal action against MATIN
Summary of the method: as §2

[19] = test system: Abutilon theophrasti (ABUTH); assay: Pre-emergence herbicidal action against ABUTH; settings: Dosage column 320 g/ha (title prints 3200 g/ha); scored visually after about 3 weeks; 100% = plants have died
Summary of the method: as §2

Viola tricolor (VIOTR) [20] = assay: Pre-emergence herbicidal action against VIOTR
Summary of the method: as §2

[21] = test system: Alopecurus myosuroides (ALOMY); assay: Post-emergence herbicidal action against ALOMY; settings: visual rating about 3 weeks after treatment vs untreated controls (100% = plants have died, 0% = like control plants)
Summary of the method: as §3

[22] = test system: Polygonum convolvulus (POLCO); assay: Post-emergence herbicidal action against POLCO
Summary of the method: as §3

[23] = test system: Abutilon theophrasti (ABUTH); assay: Post-emergence herbicidal action against ABUTH; settings: visual rating about 3 weeks after treatment vs untreated controls (100% = plants have died, 0% = like control plants)
Summary of the method: as §3

Setaria viridis (SETVI) [24] = assay: Post-emergence herbicidal action against SETVI
Summary of the method: as §3

Avena fatua (AVEFA) [25] = assay: Post-emergence herbicidal action against AVEFA; settings: visual rating about 3 weeks after treatment
Summary of the method: as §3

[26] = test system: Echinochloa crus-galli (ECHCG); assay: Post-emergence herbicidal action against ECHCG
Summary of the method: as §3

[27] = test system: Verconica persica (VERPE); assay: Pre-emergence herbicidal action against VERPE; settings: dosage 320 g/ha
Summary of the method: as §2

[28] = test system: Pharbitis purpurea (PHBPU); assay: Pre-emergence herbicidal action against PHBPU
Summary of the method: as §2

[29] = test system: Triticum aestivum (TRZAS); settings: crop plant compatibility, 20 g/ha, effect vs untreated controls
Summary of the method: as §4

Lolium rigidum (LOLRI) [30] = assay: Post-emergence herbicidal action against LOLRI; settings: dosage 320 g/ha
Summary of the method: as §3

[31] = test system: Digitaria sanguinalis (DIGSA); assay: Pre-emergence herbicidal action against DIGSA; settings: dosage 320 g/ha
Summary of the method: as §2

[32] = 80 g/ha, visual rating about 3 weeks after treatment vs untreated controls (100% = plants have died, 0% = like control plants)
[33] = 320 g/ha, visual rating about 3 weeks after treatment
[34] = 80 g/ha, effect in comparison to untreated controls
[35] = 20 g/ha, effect vs untreated controls

Row | Structure (SMILES) | Pre-emergence action against TRZAS in % [1] [%] | Pre-emergence action against GLXMA in % (Glycine max (GLXMA); 80 g/ha) [%] | Pre-emergence action against ORYSA in % (Oryza sativa (ORYSA) [2]; 80 g/ha) [%] | Pre-emergence action against ORYSA in % (Oryza sativa (ORYSA) [2]; 320 g/ha) [%] | Pre-emergence action against SETVI in % (Setaria viridis (SETVI) [4]; dosage 320 g/ha) [%] | Post-emergence action against AMARE in % [5, 32] [%] | Post-emergence action against AMARE in % [5, 33] [%] | Post-emergence action against ORYSA in % (Oryza sativa (ORYSA) [6]; [34]) [%] | Post-emergence action against VIOTR in % (Viola tricolor (VIOTR) [8]; 320 g/ha) [%] | Pre-emergence action against AMARE in % ([9]; 80 g/ha) [%] | Pre-emergence action against AMARE in % ([9]; 320 g/ha) [%] | Pre-emergence action against LOLRI in % (Lolium rigidum (LOLRI) [10]; dosage 320 g/ha) [%] | Pre-emergence action against ALOMY [12] [%] | Post-emergence action against MATIN in % ([13]; dosage 80 g/ha) [%] | Post-emergence action against PHBPU in % ([14]; dosage 80 g/ha) [%] | Pre-emergence action against POLCO in % ([15]; dosage 320 g/ha) [%] | Pre-emergence action against ECHCG in % [17] [%] | Pre-emergence action against MATIN in % ([18]; dosage 320 g/ha) [%] | Pre-emergence action against VIOTR in % (Viola tricolor (VIOTR) [20]; 320 g/ha, Viola tricolor) [%] | Pre-emergence action against PHBPU in % ([28]; dosage 320 g/ha) [%] | other results
1 | COC(=O)CCOC(=O)COc1nn(-c2ccnc(F)c2)c(-c2ccc(F)nc2)c1Br [III-27] | 20 | 0 | 0 | 20 | 90 | 80 | 80 | 0 | 80 |  |  |  |  |  |  |  |  |  |  |  | Pre-emergence action against ZEAMX in % (Zea mays (ZEAMX) [3]; 80 g/ha): 10%; Pre-emergence action against ZEAMX in % (Zea mays (ZEAMX) [3]; 320 g/ha): 20%; Post-emergence action against ORYSA in % (Oryza sativa (ORYSA) [6]; 320 g/ha, effect in comparison to untreated controls): 0%; Post-emergence action against ZEAMX in % (Zea mays (ZEAMX) [7]; 80 g/ha): 10%; Post-emergence action against ZEAMX in % (Zea mays (ZEAMX) [7]; 320 g/ha): 10%
2 | COC(=O)CCOC(=O)COc1nn(-c2ccccn2)c(-c2cncc(F)c2)c1Br [Example I-77] |  | 0 |  |  | 100 | 80 |  |  |  | 90 | 100 | 100 | 90 | 90 | 90 | 90 | 100 | 90 | 100 | 90 | Pre-emergence action against LOLRI in % (Lolium rigidum (LOLRI) [10]; dosage 80 g/ha): 90%; Pre-emergence action against AVEFA in % (Avena fatua (AVEFA) [11]; 80 g/ha): 80%; Pre-emergence action against AVEFA in % (Avena fatua (AVEFA) [11]; 320 g/ha): 90%; Post-emergence action against ORYSA in % (Oryza sativa (ORYSA) [6]; [35]): 0%; Post-emergence action against ZEAMX in % (crop plant compatibility) (Zea mays (ZEAMX) [7]): 0%; Post-emergence action against VERPE in % ([16]; dosage 80 g/ha): 90%; Pre-emergence action against MATIN in % ([18]; dosage 80 g/ha): 80%; Pre-emergence action against ABUTH [19]: 80%; Pre-emergence action against VIOTR in % (Viola tricolor (VIOTR) [20]; dosage 80 g/ha): 90%; Post-emergence action against ALOMY in % ([21]; 80 g/ha): 90%; Post-emergence action against POLCO in % ([22]; dosage 80 g/ha): 80%; Post-emergence action against ABUTH in % ([23]; 80 g/ha): 80%; Post-emergence action against SETVI in % (Setaria viridis (SETVI) [24]; dosage 80 g/ha): 80%; Post-emergence action against AVEFA in % (Avena fatua (AVEFA) [25]; 80 g/ha): 90%; Post-emergence action against ECHCG in % ([26]; dosage 80 g/ha): 90%; Pre-emergence action against VERPE in % [27]: 90%; Pre-emergence action against PHBPU in % ([28]; dosage 80 g/ha): 80%
3 | COC(=O)CCOC(=O)COc1nn(-c2ccnc(Cl)c2)c(-c2ccc(F)nc2)c1Br [III-19] | 20 | 0 | 0 | 20 |  | 80 |  | 0 |  |  | 80 |  |  |  | 80 |  |  |  |  |  | Post-emergence action against TRZAS in % [29]: 20%; Post-emergence action against ORYSA in % (Oryza sativa (ORYSA) [6]; [35]): 0%; Post-emergence action against ZEAMX in % (crop plant compatibility) (Zea mays (ZEAMX) [7]): 0%
4 | COC(=O)CSc1nn(-c2ccccn2)c(-c2cncc(F)c2)c1Br [Example I-151] | 10 | 10 |  |  | 100 | 90 | 100 | 0 | 90 | 90 | 100 | 90 | 100 | 80 | 90 | 90 | 90 | 90 | 100 | 80 | Pre-emergence action against GLXMA in % (Glycine max (GLXMA); 320 g/ha): 20%; Pre-emergence action against SETVI in % (Setaria viridis (SETVI) [4]; dosage 80 g/ha): 90%; Post-emergence action against MATIN in % ([13]; dosage 320 g/ha): 90%; Post-emergence action against LOLRI in % (Lolium rigidum (LOLRI) [30]): 90%; Post-emergence action against PHBPU in % ([14]; dosage 320 g/ha): 90%; Post-emergence action against VERPE in % ([16]; 320 g/ha, VERPE): 90%; Pre-emergence action against MATIN in % ([18]; dosage 80 g/ha): 90%; Post-emergence action against ALOMY in % ([21]; 80 g/ha): 80%; Post-emergence action against ALOMY in % ([21]; 320 g/ha): 80%; Post-emergence action against POLCO in % ([22]; dosage 320 g/ha): 80%; Post-emergence action against ABUTH in % ([23]; 80 g/ha): 80%; Post-emergence action against ABUTH in % ([23]; 320 g/ha): 80%; Post-emergence action against SETVI in % (Setaria viridis (SETVI) [24]; dosage 80 g/ha): 90%; Post-emergence action against SETVI in % (Setaria viridis (SETVI) [24]; dosage 320 g/ha): 90%; Post-emergence action against AVEFA in % (Avena fatua (AVEFA) [25]; 80 g/ha): 90%; Post-emergence action against AVEFA in % (Avena fatua (AVEFA) [25]; 320 g/ha): 90%; Post-emergence action against ECHCG in % ([26]; dosage 80 g/ha): 90%; Post-emergence action against ECHCG in % ([26]; dosage 320 g/ha): 90%; Post-emergence action against VIOTR in % (Viola tricolor (VIOTR) [8]; 80 g/ha): 80%; Pre-emergence action against PHBPU in % ([28]; dosage 80 g/ha): 80%
5 | COC(=O)COc1nn(-c2ncccc2C(F)(F)F)c(-c2cncc(F)c2)c1Br [Example I-206] | 0 | 10 |  |  |  |  |  |  | 80 |  | 90 |  | 80 |  |  | 80 | 80 | 90 | 100 | 80 | Post-emergence action against MATIN in % ([13]; dosage 320 g/ha): 80%; Post-emergence action against PHBPU in % ([14]; dosage 320 g/ha): 90%; Pre-emergence action against POLCO in % ([15]; dosage 80 g/ha): 80%; Post-emergence action against VERPE in % ([16]; 320 g/ha, VERPE): 80%; Pre-emergence action against VIOTR in % (Viola tricolor (VIOTR) [20]; dosage 80 g/ha): 90%; Pre-emergence action against DIGSA in % [31]: 90%; Post-emergence action against ALOMY in % ([21]; 320 g/ha): 80%; Post-emergence action against ECHCG in % ([26]; dosage 320 g/ha): 80%
